Laboratory results reported in patent publication US11053204B2, “Pyrimidinyloxy benzene derivatives as herbicides” (FMC Corporation, priority 2015, dated 2021).

Columns and labels:
Format in all cases: in vivo
[1] = system: Italian ryegrass (Lolium multiflorum); assay: Test A preemergence, visual injury rating
Outline: (§1)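 Visual 0–100 rating (100 = complete control) taken about 10 d post-treatment relative to untreated checks. Preemergence: directed soil spray on sown loam/sand pots. Postemergence: seedlings 2–10 cm, 1–2 leaf. Non-phytotoxic solvent formulation with surfactant.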

[2] = system: barnyardgrass (Echinochloa crus-galli); assay: Test A preemergence, visual injury rating
Outline: as §1

[3] = system: giant foxtail (Setaria faberii); assay: Test A preemergence, visual injury rating
Outline: as §1

kochia (Kochia scoparia) [4] = assay: Test A preemergence, visual injury rating
Outline: as §1

[5] = system: pigweed (Amaranthus retroflexus); assay: Test A preemergence, visual injury rating
Outline: as §1

[6] = system: ragweed (common ragweed, Ambrosia elatior); assay: Test A preemergence, visual injury rating
Outline: as §1

[7] = system: Italian ryegrass (Lolium multiflorum); assay: Test A postemergence, visual injury rating
Outline: as §1

[8] = system: barnyardgrass (Echinochloa crus-galli); assay: Test A postemergence, visual injury rating; settings: 0 is no effect, 100 is complete control; for Barnyardgrass plant response rating: 0 to 100 scale, approximately 10 days
Outline: as §1

[9] = system: blackgrass (Alopecurus myosuroides); assay: Test A postemergence, visual injury rating
Outline: as §1

corn (Zea mays) = assay: Test A postemergence, visual injury rating
Outline: as §1

[10] = system: galium (catchweed bedstraw, Galium aparine); assay: Test A postemergence, visual injury rating
Outline: as §1

[11] = system: giant foxtail (Setaria faberii); assay: Test A postemergence, visual injury rating
Outline: as §1

kochia (Kochia scoparia) [12] = assay: Test A postemergence, visual injury rating
Outline: as §1

[13] = system: pigweed (Amaranthus retroflexus); assay: Test A postemergence, visual injury rating
Outline: as §1

[14] = system: ragweed (common ragweed, Ambrosia elatior); assay: Test A postemergence, visual injury rating
Outline: as §1

[15] = system: wheat (Triticum aestivum); assay: Test A postemergence, visual injury rating
Outline: as §1

[16] = system: barnyardgrass (Echinochloa crus-galli); assay: Test B flooded paddy test, plant response rating; settings: 250 g ai/ha; Flood; scale of 0 to 100 where 0 is no effect and 100 is complete control; 13 to 15 days
Outline: (§2)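 Under a constant 3 cm flood, test compounds went directly into the paddy water. Following 13 to 15 days of greenhouse growth, treated species and controls were compared by eye.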

[17] = system: ducksalad (Heteranthera limosa); assay: Test B flooded paddy test, plant response rating; settings: 250 g ai/ha; Flood; scale of 0 to 100 where 0 is no effect and 100 is complete control; 13 to 15 days
Outline: as §2

rice (Oryza sativa) = assay: Test B flooded paddy test, plant response rating; settings: 250 g ai/ha; Flood; scale of 0 to 100 where 0 is no effect and 100 is complete control; 13 to 15 days
Outline: as §2

[18] = system: sedge, umbrella (small-flower umbrella sedge, Cyperus difformis); assay: Test B flooded paddy test, plant response rating; settings: 250 g ai/ha; Flood; scale of 0 to 100 where 0 is no effect and 100 is complete control; 13 to 15 days
Outline: as §2

[19] = 31 g ai/ha, 0 to 100 scale, 0 no effect, 100 complete control
[20] = 125 g ai/ha, 0 to 100 scale (0 no effect, 100 complete control)
[21] = 31 g ai/ha, 0 to 100 scale (0 no effect, 100 complete control)
[22] = 125 g ai/ha, 0 to 100 scale, 0 is no effect, 100 is complete control, approximately 10 days
[23] = 500 g ai/ha, 0 to 100 scale (0 no effect, 100 complete control)
[24] = 500 g ai/ha, 0 is no effect, 100 is complete control

Row | Compound | Plant response rating, Ryegrass, Italian [1, 20] | Plant response rating, Barnyardgrass [2, 20] | Plant response rating, Foxtail, Giant [3, 20] | Plant response rating, Kochia (kochia (Kochia scoparia) [4]; [20]) | Plant response rating, Pigweed [5, 20] | Plant response rating, Ragweed [6, 20] | Ryegrass, Italian plant response rating [7, 22] | Barnyardgrass plant response rating ([8]; 125 g ai/ha) | Blackgrass plant response rating [9, 22] | Corn plant response rating (corn (Zea mays); [22]) | Galium plant response rating [10, 22] | Foxtail, Giant plant response rating [11, 22] | Kochia plant response rating (kochia (Kochia scoparia) [12]; [22]) | Pigweed plant response rating [13, 22] | Ragweed plant response rating [14, 22] | Wheat plant response rating [15, 22] | Plant response rating, Barnyardgrass [16] | Plant response rating, Ducksalad [17] | Plant response rating, Rice (rice (Oryza sativa)) | Plant response rating, Sedge, Umbrella [18] | further results
1 | FC(F)(F)CCCCc1c(Oc2ncc(Cl)cn2)cccc1C1CC1 [Compound 135] | 10 | 40 | 50 | 0 | 20 | 0 | 10 | 10 | 20 | 20 | 80 | 20 | 60 | 90 | 10 | 0 | 0 | 85 | 20 | 85 | Plant response rating, Ryegrass, Italian [1, 19]: 0; Plant response rating, Barnyardgrass [2, 19]: 0; Plant response rating, Foxtail, Giant [3, 19]: 0; Plant response rating, Kochia (kochia (Kochia scoparia) [4]; [19]): 0; Plant response rating, Pigweed [5, 19]: 0; Plant response rating, Ragweed [6, 19]: 0; Ryegrass, Italian plant response rating [7, 21]: 0; Barnyardgrass plant response rating ([8]; 31 g ai/ha): 0; Blackgrass plant response rating [9, 21]: 0; Corn plant response rating (corn (Zea mays); [21]): 10; Galium plant response rating [10, 21]: 50; Foxtail, Giant plant response rating [11, 21]: 10; Kochia plant response rating (kochia (Kochia scoparia) [12]; [21]): 10; Pigweed plant response rating [13, 21]: 40; Ragweed plant response rating [14, 21]: 0; Wheat plant response rating [15, 21]: 0
2 | O=Cc1c(Cl)cccc1Oc1ncc(Cl)cn1 [Compound 139] | 0 | 0 | 0 | 0 | 0 | 50 | 0 | 0 | 0 | 0 | 0 | 0 | 0 | 0 | 0 | 0 | 0 | 30 | 0 | 0 | Ryegrass, Italian plant response rating [1, 23]: 0; Barnyardgrass plant response rating [2, 23]: 0; Foxtail, Giant plant response rating [3, 23]: 0; Kochia plant response rating (kochia (Kochia scoparia) [4]; [23]): 0; Pigweed plant response rating [5, 23]: 0; Ragweed plant response rating [6, 23]: 0; Ryegrass, Italian plant response rating (0 to 100 scale) [7, 24]: 20; Barnyardgrass plant response rating (0 to 100 scale) ([8]; 500 g ai/ha): 0; Blackgrass plant response rating (0 to 100 scale) [9, 24]: 0; Corn plant response rating (0 to 100 scale) (corn (Zea mays); [24]): 0; Galium plant response rating (0 to 100 scale) [10, 24]: 0; Foxtail, Giant plant response rating (0 to 100 scale) [11, 24]: 0; Kochia plant response rating (0 to 100 scale) (kochia (Kochia scoparia) [12]; [24]): 0; Pigweed plant response rating (0 to 100 scale) [13, 24]: 0; Ragweed plant response rating (0 to 100 scale) [14, 24]: 0; Wheat plant response rating (0 to 100 scale) [15, 24]: 0
3 | N#CCc1ccccc1Oc1ncc(Cl)cn1 [Compound 140] | 10 | 0 | 0 | 40 | 10 | 0 | 0 | 0 | 0 | 0 | 0 | 0 | 30 | 20 | 0 | 0 | 0 | 0 | 0 | 0 | Plant response rating, Ryegrass, Italian [1, 19]: 10; Plant response rating, Barnyardgrass [2, 19]: 0; Plant response rating, Foxtail, Giant [3, 19]: 0; Plant response rating, Kochia (kochia (Kochia scoparia) [4]; [19]): 0; Plant response rating, Pigweed [5, 19]: 0; Plant response rating, Ragweed [6, 19]: 0; Ryegrass, Italian plant response rating [7, 21]: 0; Barnyardgrass plant response rating ([8]; 31 g ai/ha): 0; Blackgrass plant response rating [9, 21]: 0; Corn plant response rating (corn (Zea mays); [21]): 0; Galium plant response rating [10, 21]: 0; Foxtail, Giant plant response rating [11, 21]: 0; Kochia plant response rating (kochia (Kochia scoparia) [12]; [21]): 0; Pigweed plant response rating [13, 21]: 0; Ragweed plant response rating [14, 21]: 0; Wheat plant response rating [15, 21]: 0
